Experiments:
PR3 [1] = assay: PD recovery study, bone marrow PR3 activity, C57BL/6 mice; assay type: in vivo; conditions: for Percent change from vehicle PR3: bone marrow
Protocol: A PD recovery study was performed in female C57BL/6 mice dosed BID for 8 consecutive days. Mice were dosed by oral gavage either with vehicle (0 mg/kg) or 5 mg/kg brensocatib (BID; 10 mg/kg/day). After 8 consecutive days of dosing, the animals were maintained without further treatment until prescribed sacrifice (days: 1, 3, 6, 8, and 10 days post final dose). Plasma was collected from animals during the first 24 h of dosing at −0.5 (half-hour prior to dosing), 1, 8, 9, and 24 h post initial dose. Note that the 8- and 24-h plasma samples were prior to the afternoon dose and prior to the second day dose, respectively. Plasma was used for PK analysis via LC-MS/MS. On prescribed days, animals were sacrificed, and the hind limb bones (femurs and tibias) were collected at necropsy for bone marrow analysis of NSP activities by kinetic enzymatic assays.
(§1) For the mice, each animal had the femurs and tibias of both hind limbs harvested. For the rat, the femur and tibia from a single hind limb per animal was harvested. Bones were kept on wet ice until processing for bone marrow collection. In brief, bone cutters were used to cut the epiphysis (knobby ends) off the long bones to expose the bone marrow filled cavity. Each bone cavity was then flushed with 5 mL/bone (mouse) or 10 mL/bone (rat) of ice-cold RPMI media through a […] and collected in a 50-mL conical tube. Cells were spun down at 2,500 × g at 4°C for 5 min and the supernatant was aspirated. After which, bone marrow cells were lysed with 1X red blood cell (RBC) lysis buffer (Abcam, ab204733) to eliminate contaminating RBCs and washed with PBS to remove any residual RBC lysis buffer. The resulting white blood cells (WBC) were subsequently lysed with 1% (v/v) Triton X-100 in PBS. Lysates were added to 96-well plates and stored at −80°C until NSP analyses.
(§2) Bone marrow lysates prepared as described above were diluted and plated onto 96-well assay plates to quantify NSP activities as described previously ([Basso et al., 2022]). Briefly, peptide substrates for NE (N-Methoxysuccinyl-Ala-Ala-Pro-Val-7-amido-4-methylcoumarin; Sigma; St. Louis, MO; Excitation/Emission at 350/450 nm), PR3 ((7-Methoxycoumarin-4-yl)acetyl-lysyl-(picolinoyl)-Tyr-Asp-Ala-Lys-Gly-Asp-N-3-(2-4-dinitrophenyl)-2-3-diaminopropyonyl-NH2); GenScript; Piscataway, NJ; Excitation/Emission at 340/430 nm), and CatG (N-Succinyl-Ala-Ala-Pro-Phe p nitroanilide; Sigma; Absorbance at 405 nm) were added at a final assay concentration of 100 μM, 40 μM, and 200 μM, respectively, and either fluorescence or absorbance was quantified using a Synergy microplate reader (BioTek; Winooski, VT). The specific NSP activity in each sample was calculated as the total activity minus the activity in the presence of a specific NSP inhibitor (if used), including elastase inhibitor (Abcam) for NE, sivelestat (Abcam) for PR3, and cathepsin G inhibitor I (Cayman Chemical; Ann Arbor, MI) for CatG. NSP concentrations were interpolated based on their activities relative to the standard curves created using active human NE protein (Sigma), active human PR3 protein (Sigma), and active human CatG protein (Sigma), respectively. Due to unavailability of commercial mouse and/or rat NE, PR3, and CatG proteins, the corresponding human proteins were used instead since their catalytic ability is considered to be conserved across species. A portion of each cell lysate sample was retained for protein quantification using a Pierce™ BCA Protein Assay Kit (Thermo Fisher). The NSP activities were normalized for the cell lysate protein concentrations.
The Pierce™ BCA Protein Assay Kit was used to measure the total protein of the samples after lysis to allow for subsequent normalization. The manufacturer’s instructions for use were followed when performing this assay on a portion of the sample lysates which were diluted in PBS, the same diluent as used for preparation of the standard. Plates were read on the Biotek Synergy plate reader with Gen5 software.

NE = system: NE; parameters: method as in Chalmers et al., 2020; conditions: Phase 2 trial in NCFBE (WILLOW, NCT03218917), vs placebo; ref Chalmers et al., 2020; cited from earlier work
PR3 [2] = assay: Bone marrow PR3 activity after repeated dosing, Wistar rats; assay type: in vivo; conditions: for Reduction of PR3 activity vs vehicle / Change From Vehicle Control (%) PR3: 7 days
Protocol: Briefly, animals were weighed and randomized into different treatment groups. In total, three different dosing levels of brensocatib were tested in each species and strain; each QD dosing level was equivalent to 1.5-times the matching daily BID dose. For BID dosing, the second daily dose was administered 8-h post the morning dose. C57BL/6 mice were dosed either BID or QD for 7 consecutive days at 0/0, 0.5/0.75, 2/3, and 20/30 mg/kg/day (BID/QD). BALB/c mice were dosed for 7 consecutive days at 0/0, 0.2/0.3, 2/3, and 20/30 mg/kg/day (BID/QD). SD rats were dosed for 9 consecutive days at 0/0, 0.2/0.3, 2/3, and 20/30 mg/kg/day (BID/QD). Wistar rats were dosed for 7 consecutive days at 0/0, 0.2/0.3, 2/3, and 20/30 mg/kg/day (BID/QD).
At the completion of the study, animals were sacrificed 16–24 h post their final dose. The hind limb bones (femurs and tibias) were collected at necropsy for bone marrow analysis of NSP activities by kinetic enzymatic assays ([Basso et al., 2022]). See section Quantification of Bone Marrow NSP Activities for details.
as §1, §2
The Pierce™ BCA Protein Assay Kit was used to measure the total protein of the samples after lysis to allow for subsequent normalization. […]

[3] = after 8 days of 5 mg/kg BID, curve fit with free min and max

In the case of `Cn1c(=O)oc2ccc(-c3ccc(C[C@@H](C#N)NC(=O)[C@@H]4CNCCCO4)cc3)cc21` [brensocatib], the “Recovery: Time to reach 50% recovery, PR3” value (PR3 [1]; [3]) was 1.4 days, the “Recovery: Time to reach 90% recovery, PR3” value (PR3 [1]; [3]) was 5.2 days and the “Recovery: Time to reach 95% recovery, PR3” value (PR3 [1]; [3]) was 6.2 days. The “Recovery: Time to reach 100% recovery, PR3” value (PR3 [1]; [3]) was 7.5 days, the “Percent change from vehicle PR3” value (PR3 [1]; 1 day recovery after 8 days of 5 mg/kg BID) was −63% (p < 0.0001) and the “Percent change from vehicle PR3” value (PR3 [1]; 3 days recovery after 8 days of 5 mg/kg BID) was −28% (p = 0.0024). The “Percent change from vehicle PR3” value (PR3 [1]; 6 days recovery after 8 days of 5 mg/kg BID) was −14% (p = 0.3753), the “Percent change from vehicle PR3” value (PR3 [1]; 8 days recovery after 8 days of 5 mg/kg BID) was “+5% (p = 0.9691)” and the “Percent change from vehicle PR3” value (PR3 [1]; 10 days recovery after 8 days of 5 mg/kg BID) was “+16% (p = 0.1549)”. The “sputum NE activity” value (NE) was “dose-dependent reduction”, the “Reduction of PR3 activity vs vehicle” value (PR3 [2]; BID highest dose (20 mg/kg/day)) was 46% and the “Reduction of PR3 activity vs vehicle” value (PR3 [2]; QD highest dose (30 mg/kg/day)) was 59%. The “Combined BID and QD percent reduction, PR3” value (PR3 [2]; highest dose level 20/30 (BID/QD) mg/kg/day) was 53%, the “Change From Vehicle Control (%) PR3” value (PR3 [2]; oral BID 0.2 mg/kg/day) was “+10% (p = 0.9848)” and the “Change From Vehicle Control (%) PR3” value (PR3 [2]; oral BID 2 mg/kg/day) was “+22% (p = 0.8768)”. For the same molecule, the “Change From Vehicle Control (%) PR3” value (PR3 [2]; oral BID 20 mg/kg/day) was −46% (p = 0.4135), the “Change From Vehicle Control (%) PR3” value (PR3 [2]; oral QD 0.3 mg/kg/day) was “+6% (p = 0.9963)” and the “Change From Vehicle Control (%) PR3” value (PR3 [2]; oral QD 3 mg/kg/day) was −35% (p = 0.5635). For the same molecule, the “Change From Vehicle Control (%) PR3” value (PR3 [2]; oral QD 30 mg/kg/day) was −59% (p = 0.1437).

From paper PMC10394516, “The pharmacokinetic profile of brensocatib and its effect on pharmacodynamic biomarkers including NE, PR3, and CatG in various rodent species” (Frontiers in Pharmacology, 2023)
